US20250268897A1, “USE OF HETEROCYCLIC COMPOUND IN TREATING DISEASES RELATED TO KINASE DRUG-RESISTANT MUTATION AND METHOD THEREFOR” (Sichuan Kelun-Biotech Biopharmaceutical Co., Ltd., priority 2021, published 2025)

Assays:
[1] = system: Ba/F3 KIF5B-RET^G810R subcutaneous tumour; assay: In vivo efficacy in BALB/c Nude mouse model with Ba/F3 KIF5B-RET^G810R subcutaneous tumour; details: 30 mg/kg, PO, BID × 12; for VP-1 (mm^3, mean ± SEM): tumour volume one day before administration: baseline of the group
RET-G810C enzyme = RET-G810C enzyme (Homo sapiens (Human), UniProt P07949, G810C); assay: RET inhibition experiment, HTRF KinEASE-TK kit, RET-G810C; format: biochemical
RET-G810R enzyme = RET-G810R enzyme (Homo sapiens (Human), UniProt P07949, G810R); assay: RET inhibition experiment, HTRF KinEASE-TK kit, RET-G810R; format: biochemical
RET-G810S enzyme = RET-G810S enzyme (Homo sapiens (Human), UniProt P07949, G810S); assay: RET inhibition experiment, HTRF KinEASE-TK kit, RET-G810S; format: biochemical
[2] = system: Ba/F3 KIF5B-RET^G810S cells; assay: Inhibition of cell proliferation, Cell Titer Glo, Ba/F3 KIF5B-RET^G810S; format: cell-based
Procedure: (§1) Experimental purpose: To evaluate the inhibitory effect of the compound on proliferation of three BaF3 cell lines (Ba/F3 KIF5B-RET^G810R, Ba/F3 KIF5B-RET^G810S, Ba/F3 KIF5B-RET^G810C) in vitro.
(§2) Experimental method: Three Ba/F3 cell lines (Ba/F3 KIF5B-RET^G810R, Ba/F3 KIF5B-RET^G810S Ba/F3 KIF5B-RET^G810C) in logarithmic phase were respectively collected and inoculated into 96-well plates, with 2000 cells/95 μl/well. […] In addition, negative control wells (without the test compound) and blank control wells (without cells) were set.
(§3) the inhibition rate % was fitted using the four-parameter equation “log(agonist) vs response-variable slope (four parameters)” in GraphPad Prism 6.0, and the IC50 was obtained by calculation.

[3] = system: Ba/F3 KIF5B-RET^G810C cells; assay: Inhibition of cell proliferation, Cell Titer Glo, Ba/F3 KIF5B-RET^G810C; format: cell-based
Procedure: as §1, §2, §3

[4] = system: Ba/F3 KIF5B-RET^G810R cells; assay: Inhibition of cell proliferation, Cell Titer Glo, Ba/F3 KIF5B-RET^G810R; format: cell-based
Procedure: as §1, §2, §3

[5] = Mus musculus, BaF3, 72 h, 3 days culture, Cell Titer Glo

Chain of RET-G810R enzyme (P07949 29-1114 G810R): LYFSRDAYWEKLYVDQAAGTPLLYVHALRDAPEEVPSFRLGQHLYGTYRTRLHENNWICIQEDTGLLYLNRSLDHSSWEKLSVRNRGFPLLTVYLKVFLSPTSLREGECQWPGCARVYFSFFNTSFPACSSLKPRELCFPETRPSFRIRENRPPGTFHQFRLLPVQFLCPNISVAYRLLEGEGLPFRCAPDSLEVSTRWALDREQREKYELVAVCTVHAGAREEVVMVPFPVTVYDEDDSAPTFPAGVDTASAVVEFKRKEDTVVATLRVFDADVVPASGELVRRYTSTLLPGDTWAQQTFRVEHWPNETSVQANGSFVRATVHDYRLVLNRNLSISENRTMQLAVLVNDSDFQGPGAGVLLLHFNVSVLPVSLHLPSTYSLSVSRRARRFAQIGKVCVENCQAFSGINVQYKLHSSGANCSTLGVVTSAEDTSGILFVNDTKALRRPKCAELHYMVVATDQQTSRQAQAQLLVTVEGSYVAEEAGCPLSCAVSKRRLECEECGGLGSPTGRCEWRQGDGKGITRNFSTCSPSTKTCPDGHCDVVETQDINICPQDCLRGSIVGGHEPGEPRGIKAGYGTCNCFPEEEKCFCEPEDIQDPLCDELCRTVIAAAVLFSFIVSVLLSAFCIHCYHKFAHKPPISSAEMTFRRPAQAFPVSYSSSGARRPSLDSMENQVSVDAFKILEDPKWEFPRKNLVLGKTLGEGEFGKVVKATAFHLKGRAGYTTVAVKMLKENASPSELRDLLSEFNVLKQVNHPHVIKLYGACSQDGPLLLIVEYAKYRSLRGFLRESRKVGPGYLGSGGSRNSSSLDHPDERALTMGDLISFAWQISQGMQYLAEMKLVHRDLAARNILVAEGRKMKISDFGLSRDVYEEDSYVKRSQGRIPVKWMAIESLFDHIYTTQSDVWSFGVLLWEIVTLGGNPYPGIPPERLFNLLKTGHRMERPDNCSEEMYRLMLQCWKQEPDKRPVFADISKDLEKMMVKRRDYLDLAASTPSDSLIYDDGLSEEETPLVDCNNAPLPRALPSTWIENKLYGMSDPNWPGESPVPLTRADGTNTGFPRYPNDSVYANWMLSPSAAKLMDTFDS
Chain of RET-G810S enzyme (P07949 29-1114 G810S): as the sequence (P07949 29-1114 G810R) above, with R782S counted along it
Chain of RET-G810C enzyme (P07949 29-1114 G810C): as the sequence (P07949 29-1114 G810R) above, with R782C counted along it

Question: For CO[C@]1(C(=O)N[C@@H](C)c2ccc(-n3cc(F)cn3)nc2)CC[C@H](c2nc(C)cc(Nc3cc(C)[nH]n3)n2)CC1 [BLU-667, Pralsetinib], which “TGI (%) tumour growth inhibition rate” value [1] is on record?
Answer: 29.78%

Question: And the “VP12 (mm^3, mean ± SEM): tumour volume on Day 12 of administration” value (shortened to “VP12 (mm^3, mean ± SEM): tumour volume”) [1]?
Answer: 552.89 ± 29.7 mm^3

Question: And the “VP-1 (mm^3, mean ± SEM): tumour volume one day before administration” value (“VP-1 (mm^3, mean ± SEM)” below) [1]?
Answer: 101.82 ± 5.93 mm^3

Question: Which “TGI (%) tumour growth inhibition rate” value [1] does the source give for COc1ccc(CN2C3CC2CN(c2ccc(-c4cc(OCC(C)(C)O)cn5ncc(C#N)c45)cn2)C3)cn1 [LOXO-292, Selpercatinib] here?
Answer: 2.69%

Question: What about the “VP12 (mm^3, mean ± SEM): tumour volume” value [1] of the same compound?
Answer: 725.55 ± 54.84 mm^3

Question: And the “VP-1 (mm^3, mean ± SEM)” value [1]?
Answer: 100.47 ± 4.52 mm^3

Question: Which IC50 (RET-G810C enzyme; Table 6) does the source give for Cc1cc(Nc2cc(C)[nH]n2)nc(-c2ccc(N3CC4CC(C3)N4Cc3ccc(-n4cc(F)cn4)nc3)nc2)n1 [Compound 18] here?
Answer: 36.3 nM

Question: And the IC50 (RET-G810R enzyme; Table 2)?
Answer: 132 nM

Question: What about the IC50 (RET-G810S enzyme; Table 4) of the same compound?
Answer: 15.9 nM

Question: Which “TGI (%) tumour growth inhibition rate” value [1] does the source give for Cc1cc(Nc2cc(C)[nH]n2)nc(-c2ccc(N3CC4CC(C3)N4Cc3ccc(-n4cc(F)cn4)nc3)nc2)n1.O=C(O)/C=C/C(=O)O [Compound 1-A, Fumarate of 2-(6-(6-((6-(4-fluoro-1H-pyrazol-1-yl)pyridin-3-yl)methyl)-3,6-diazabicyclo [3.1.1]heptan-3-yl)pyridin-3-yl)-6-methyl-N-(5-methyl-1H-pyrazol-3-yl) pyrimidin-4-amine] here?
Answer: 72.37%

Question: And the “VP12 (mm^3, mean ± SEM): tumour volume” value [1]?
Answer: 278.53 ± 51.13 mm^3

Question: And the “VP-1 (mm^3, mean ± SEM)” value [1]?
Answer: 101.08 ± 4.75 mm^3

Question: What about the IC50 [2, 5] of the same compound?
Answer: 20.2 ± 0.35 nM

Question: And the “Inhibiting the proliferation of Ba/F3 KIF5B-RET^G810S cells (in words)” value ([2]; comparison with controls)?
Answer: superior to BLU-667 and Loxo-292

Question: What about the IC50 (RET-G810C enzyme; Table 7, value ± spread) of the same compound?
Answer: 53.2 ± 10.7 nM

Question: And the “Inhibition on RET-G810C enzyme (in words)” value (RET-G810C enzyme; summary of tables)?
Answer: remarkably inhibited

Question: And the IC50 [3, 5]?
Answer: 65.3 ± 1 nM

Question: And the “Inhibiting the proliferation of Ba/F3 KIF5B-RET^G810C cells (in words)” value ([3]; comparison with controls)?
Answer: superior to BLU-667 and Loxo-292

Question: What about the IC50 (RET-G810R enzyme; Table 7, value ± spread) of the same compound?
Answer: 19.6 ± 0.67 nM

Question: And the “Inhibition on RET-G810R enzyme (in words)” value (RET-G810R enzyme; summary of tables)?
Answer: remarkably inhibited

Question: What about the IC50 [4, 5] of the same compound?
Answer: 26.3 ± 5.76 nM

Question: And the “Inhibiting the proliferation of Ba/F3 KIF5B-RET^G810R cells (in words)” value ([4]; comparison with controls)?
Answer: superior to BLU-667 and Loxo-292

Question: What about the IC50 (RET-G810S enzyme; Table 7, value ± spread) of the same compound?
Answer: 2.69 ± 0.56 nM

Question: What about the “Inhibition on RET-G810S enzyme (in words)” value (RET-G810S enzyme; summary of tables) of the same compound?
Answer: remarkably inhibited
